# Assay results as given in article PMC6905855, “Agonist-specific voltage-dependent gating of lysosomal two-pore Na^+ channels” (eLife, 2019).
# Several values for one entry are separate records, joined by “and”; a condition that tells them apart may be missing. Identical values can stand only once. Counter-ions that a name gives are not always drawn. Like-named read-outs stand apart in the source and are kept apart here.
# Key:
# [1] = biological target: T1, surface-expressing mutant TPC2 channel (TPC2^LL/AA) in HEK293 cells (Homo sapiens, UniProt Q8NHX9, L11A/L12A); experiment: Whole-cell recordings of ITPC2-LL/AA; assay type: cell-based; conditions: for activation of whole-cell ITPC2-LL/AA (in words): bath application, symmetric Na^+, 100 µM where stated; for current density: whole cell recordings, individual recordings; for EC50: whole-cell recordings at −140 mV, TPC2^LL/AA-transfected HEK293 cells; for I-TPC2: preliminary whole-cell test of positive LOPAC hits, HEK293 cells overexpressing TPC2 LL/AA, voltage ramp -140 to +100 mV (200 ms), measured at -140 mV
# T1 construct: expressed in transfected cells; host or cells: HEK293
# Description: We therefore characterized the responses of TPC2 channels to TCAs in detail using electrophysiological methods. We first performed whole-cell recordings in HEK293 cells that were transfected with surface-expressed TPC2 mutant channels (TPC2-L^11L^12-AA; abbreviated as TPC2^LL/AA hereafter).
# All TPC1 and TPC2 mutants were generated with a site-directed mutagenesis kit (Qiagen) using EGFP- human TPC1 and TPC2 as the templates. All constructs were confirmed by DNA sequencing.
# Cells were transfected with Lipofectamine 2000 (Invitrogen). After culture media were refreshed 18–24 hr post-transfection, cells were used for the electrophysiological assays 24–36 hr post-transfection.
# All bath solutions were applied via a perfusion system that allowed complete solution exchange within a few seconds. […] Whole-cell currents were digitized at 10 kHz and filtered at 2 kHz.
# [2] = biological target: T2, hTPC2 (Homo sapiens, UniProt Q8NHX9); experiment: Whole-endolysosome recordings of ITPC2; assay type: biochemical; parameters: Whole endo-lysosomal TPC2 current activated by LyNa-VAs, Test 3 / Whole endo-lysosomal TPC2 current activated by LyNa-VAs, mean: unit not given here; conditions: for Whole endo-lysosomal TPC2 current activated by LyNa-VAs, mean: mean of n tests; for ITPC2: whole endolysosome recordings with 100 µM of LyNa-VAs at −120 mV
# T2 construct: expressed in transfected cells; host or cells: Cos1 and HEK293
# T2 sequence (Q8NHX9 whole entry): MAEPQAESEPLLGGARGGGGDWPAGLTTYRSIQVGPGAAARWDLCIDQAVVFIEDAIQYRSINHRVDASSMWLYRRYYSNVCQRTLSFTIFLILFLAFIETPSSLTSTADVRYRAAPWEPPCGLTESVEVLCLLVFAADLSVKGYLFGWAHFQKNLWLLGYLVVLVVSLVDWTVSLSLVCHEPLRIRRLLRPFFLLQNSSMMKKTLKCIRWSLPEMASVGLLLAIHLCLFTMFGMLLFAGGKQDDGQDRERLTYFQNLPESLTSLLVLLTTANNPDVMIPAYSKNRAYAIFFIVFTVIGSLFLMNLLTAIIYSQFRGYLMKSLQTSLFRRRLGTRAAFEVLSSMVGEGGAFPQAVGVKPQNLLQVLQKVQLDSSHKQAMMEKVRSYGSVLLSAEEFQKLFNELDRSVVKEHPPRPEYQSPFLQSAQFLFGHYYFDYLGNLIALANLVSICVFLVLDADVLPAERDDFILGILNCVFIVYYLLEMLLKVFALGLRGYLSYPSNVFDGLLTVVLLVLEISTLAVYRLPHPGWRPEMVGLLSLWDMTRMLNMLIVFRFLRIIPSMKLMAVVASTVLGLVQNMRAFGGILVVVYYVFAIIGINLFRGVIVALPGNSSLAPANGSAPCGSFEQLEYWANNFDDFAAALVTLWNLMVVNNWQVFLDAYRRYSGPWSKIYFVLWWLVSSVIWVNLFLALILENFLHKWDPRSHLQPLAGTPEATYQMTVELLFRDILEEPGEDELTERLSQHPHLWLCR
# T1 sequence (Q8NHX9 whole entry L11A/L12A): as the sequence (Q8NHX9 whole entry) above, with L11A, L12A counted along it
smiles,measurement,setting,value
NC(=O)N1c2ccccc2C=Cc2ccccc21 [Carbamazepine],activation of whole-cell ITPC2-LL/AA (in words),[1],no significant activation
same,activation of whole-cell ITPC2-LL/AA (in words),[1]; listed as carbamazepine,not by carbamazepine
same,current density,[1]; 5 µM,8.018 pA/pF and 9.073 pA/pF and 6.645 pA/pF
same,current density,[1]; 10 µM,8.227 pA/pF and 9.227 pA/pF and 5.436 pA/pF
same,current density,[1]; 20 µM,8.573 pA/pF and 9.164 pA/pF and 6.418 pA/pF
same,current density,[1]; 50 µM,8.8 pA/pF and 8.755 pA/pF and 6.073 pA/pF
same,current density,[1]; 100 µM,7.691 pA/pF and 8.973 pA/pF and 5.518 pA/pF
same,current density,[1]; 200 µM,7.464 pA/pF and 9.855 pA/pF and 6.164 pA/pF
same,current density,[1]; 400 µM,8.109 pA/pF and 8.755 pA/pF and 7.1 pA/pF
same,EC50,[1],No activation
same,"Whole endo-lysosomal TPC2 current activated by LyNa-VAs, Test 1","[2]; 100uM, individual recording",-17
same,"Whole endo-lysosomal TPC2 current activated by LyNa-VAs, Test 2","[2]; 100uM, individual recording",9.3
same,"Whole endo-lysosomal TPC2 current activated by LyNa-VAs, Test 3","[2]; 100uM, individual recording",23.1
same,"Whole endo-lysosomal TPC2 current activated by LyNa-VAs, mean",[2]; 100uM,5.1
same,ITPC2,[2],No activation
O=C(Nc1ccc([N+](=O)[O-])cc1Cl)c1cc(Cl)ccc1O [Niclosamide],I-TPC2,[1],No activation
"CNCCC=C1c2ccccc2CCc2ccccc21 [LyNa-VA1.5, Nortriptyline]",current density,[1]; 10 µM,7.1 pA/pF and 35.8727 pA/pF and 7.336 pA/pF and 16.5636 pA/pF
same,current density,[1]; 20 µM,6.773 pA/pF and 73.7727 pA/pF and 24.3182 pA/pF
same,current density,[1]; 50 µM,14.0091 pA/pF and 121.209 pA/pF and 89.9 pA/pF
same,current density,[1]; 100 µM,57.6545 pA/pF and 164.355 pA/pF and 160.345 pA/pF and 75.7909 pA/pF
same,current density,[1]; 200 µM,154.282 pA/pF and 191.036 pA/pF and 204.236 pA/pF and 114.582 pA/pF
same,current density,[1]; 400 µM,180.164 pA/pF
same,EC50,[1]; read-out: EC50,52 ± 10 µM
same,ITPC2,[2],1916 ± 361 pA
CC(C)(C)c1cc(/C=C(\C#N)C(N)=S)cc(C(C)(C)C)c1O [Tyrphostin AG 879],I-TPC2,[1],No activation
CN1Cc2c(N)cccc2C(c2ccccc2)C1 (stereo not drawn) [Nomifensine maleate],I-TPC2,[1],No activation
CN(C)CCC=C1c2ccccc2CCc2ccccc21 [Amitriptyline hydrochloride],I-TPC2,[1],~1000 pA
CCN(CC)CCCC(C)Nc1c2ccc(Cl)cc2nc2ccc(OC)cc12 (stereo not drawn) [Quinacrine dihydrochloride dihydrate],I-TPC2,[1],No activation
CC(C[N+](C)(C)C)OC(N)=O (stereo not drawn) [Bethanechol chloride],I-TPC2,[1],No activation
CCCNCC(O)COc1ccccc1C(=O)CCc1ccccc1 (stereo not drawn) [Propafenone],I-TPC2,[1],No activation
N#C/C(=C\c1ccc(O)c(O)c1)C(=O)NCc1ccccc1 [Tyrphostin B42],I-TPC2,[1],No activation
c1ccc2c(c1)Nc1ccccc1S2 [Phenothiazine],activation of whole-cell ITPC2-LL/AA (in words),[1],no significant activation
same,current density,[1]; 10 µM,10.2273 pA/pF and 10.0273 pA/pF and 9.7 pA/pF
same,current density,[1]; 20 µM,11.0091 pA/pF and 7.509 pA/pF and 8.936 pA/pF
same,current density,[1]; 50 µM,10.7545 pA/pF and 9.7 pA/pF and 10.2182 pA/pF
same,current density,[1]; 100 µM,9.9 pA/pF and 8.064 pA/pF and 9.882 pA/pF
same,current density,[1]; 200 µM,10.0545 pA/pF and 9.218 pA/pF and 9.555 pA/pF
same,EC50,[1],No activation
same,"Whole endo-lysosomal TPC2 current activated by LyNa-VAs, Test 1","[2]; 100uM, individual recording",10.3
same,"Whole endo-lysosomal TPC2 current activated by LyNa-VAs, Test 2","[2]; 100uM, individual recording",-2.6
same,"Whole endo-lysosomal TPC2 current activated by LyNa-VAs, Test 3","[2]; 100uM, individual recording",4.8
same,"Whole endo-lysosomal TPC2 current activated by LyNa-VAs, mean",[2]; 100uM,4.2
same,ITPC2,[2],No activation
N=C(N)NC(=O)Cc1c(Cl)cccc1Cl [Guanfacine hydrochloride],I-TPC2,[1],No activation
"CN(C)CCCN1c2ccccc2CCc2ccccc21 [LyNa-VA1.3, Imipramine]",current density,[1]; 10 µM,4.664 pA/pF and 36.5364 pA/pF and 8.182 pA/pF
same,current density,[1]; 20 µM,6.518 pA/pF and 56.7909 pA/pF and 7.655 pA/pF
same,current density,[1]; 50 µM,14.1182 pA/pF and 126.618 pA/pF and 15.6182 pA/pF
same,current density,[1]; 100 µM,42.3 pA/pF and 158.945 pA/pF and 32.4364 pA/pF
same,current density,[1]; 200 µM,99.9 pA/pF and 167.955 pA/pF and 41.0364 pA/pF
same,current density,[1]; 400 µM,103.264 pA/pF
same,EC50,[1]; read-out: EC50,112 ± 1 µM
same,ITPC2,[2],433 ± 94 pA
CN(C)CCCN1c2ccccc2CCc2ccccc21 [LyNa-VA1.3/imipramine],"Whole endo-lysosomal TPC2 current activated by LyNa-VAs, Test 1","[2]; 100uM, individual recording",621.3
same,"Whole endo-lysosomal TPC2 current activated by LyNa-VAs, Test 2","[2]; 100uM, individual recording",343.9
same,"Whole endo-lysosomal TPC2 current activated by LyNa-VAs, Test 3","[2]; 100uM, individual recording",334.8
same,"Whole endo-lysosomal TPC2 current activated by LyNa-VAs, mean",[2]; 100uM,433.3
COC(=O)C1=CCCN(C)C1 [Arecoline],I-TPC2,[1],No activation
CC(=O)OC(C)C[N+](C)(C)C (stereo not drawn) [Methacholine chloride],I-TPC2,[1],No activation
CN(C)CCCN1c2ccccc2Sc2ccc(C(F)(F)F)cc21 [LyNa-VA2.2/triflupromazine],"Whole endo-lysosomal TPC2 current activated by LyNa-VAs, Test 1","[2]; 100uM, individual recording",1572
same,"Whole endo-lysosomal TPC2 current activated by LyNa-VAs, Test 2","[2]; 100uM, individual recording",698
same,"Whole endo-lysosomal TPC2 current activated by LyNa-VAs, Test 3","[2]; 100uM, individual recording",681.2
same,"Whole endo-lysosomal TPC2 current activated by LyNa-VAs, mean",[2]; 100uM,983.7
C[C@@H]1O[C@H](C[N+](C)(C)C)C[C@H]1O [Muscarine],I-TPC2,[1],No activation
CC(=O)NBr [n-Bromoacetamide],I-TPC2,[1],No activation
CN(C)CCC[C@@]1(c2ccc(F)cc2)OCc2cc(C#N)ccc21 [Escitalopram],I-TPC2,[1],No activation
CN(C)CCCN1c2ccccc2Sc2ccc(Cl)cc21 [LyNa-VA2.1/chlorpromazine],"Whole endo-lysosomal TPC2 current activated by LyNa-VAs, Test 1","[2]; 100uM, individual recording",1013.4
same,"Whole endo-lysosomal TPC2 current activated by LyNa-VAs, Test 2","[2]; 100uM, individual recording",2019.9
same,"Whole endo-lysosomal TPC2 current activated by LyNa-VAs, Test 3","[2]; 100uM, individual recording",268.2
same,"Whole endo-lysosomal TPC2 current activated by LyNa-VAs, mean",[2]; 100uM,1100.5
CNCCC=C1c2ccccc2CCc2ccccc21 [LyNa-VA1.5/nortriptyline],"Whole endo-lysosomal TPC2 current activated by LyNa-VAs, Test 1","[2]; 100uM, individual recording",1814.6
same,"Whole endo-lysosomal TPC2 current activated by LyNa-VAs, Test 2","[2]; 100uM, individual recording",1075.1
same,"Whole endo-lysosomal TPC2 current activated by LyNa-VAs, Test 3","[2]; 100uM, individual recording",1937.9
same,"Whole endo-lysosomal TPC2 current activated by LyNa-VAs, Test 4","[2]; 100uM, individual recording, Test 4",2836.3
same,"Whole endo-lysosomal TPC2 current activated by LyNa-VAs, mean",[2]; 100uM,1916.0
CNCCCC1c2ccccc2C=Cc2ccccc21 [Protriptyline hydrochloride],I-TPC2,[1],~1000 pA
CN(C)CCCN1c2ccccc2Sc2ccc(Cl)cc21 [Chlorpromazine hydrochloride],I-TPC2,[1],>1500 pA
C[N+](C)(C)CC#CCN1CCCC1=O,I-TPC2,[1],No activation
C[N+](C)(C)CCOC(N)=O [Carbachol],I-TPC2,[1],No activation
"CN(C)CCCN1c2ccccc2Sc2ccc(C(F)(F)F)cc21 [LyNa-VA2.2, Triflupromazine]",current density,[1]; 10 µM,5.827 pA/pF and 3.645 pA/pF and 3 pA/pF
same,current density,[1]; 20 µM,9.373 pA/pF and 9.136 pA/pF and 3.482 pA/pF
same,current density,[1]; 50 µM,33.1545 pA/pF and 26.4182 pA/pF and 44.2909 pA/pF
same,current density,[1]; 100 µM,125.791 pA/pF and 49.7455 pA/pF and 115.618 pA/pF
same,current density,[1]; 200 µM,155.109 pA/pF and 66.0091 pA/pF and 133.127 pA/pF
same,EC50,[1]; read-out: EC50,63 ± 2 µM
same,ITPC2,[2],984 ± 294 pA
C#CCOC(=O)C1=CCCN(C)C1 [Arecaidine propargyl ester],I-TPC2,[1],No activation
CN(C)c1cc2c(Nc3ccc4c(cnn4Cc4ccccc4)c3)ncnc2cn1,I-TPC2,[1],No activation
CN(C)CCCN1c2ccccc2Sc2ccc(C(F)(F)F)cc21 [Triflupromazine hydrochloride],I-TPC2,[1],>1500 pA
CN(C)C(=O)C(CCN1CCC(O)(c2ccc(Cl)cc2)CC1)(c1ccccc1)c1ccccc1 [Loperamide],I-TPC2,[1],No activation
"CN(C)CCC=C1c2ccccc2CCc2ccccc21 [LyNa-VA1.4, Amitriptyline]",activation of whole-cell ITPC2-LL/AA (in words),[1],ITPC2 was evoked
same,current density,[1]; 5 µM,12.4 pA/pF
same,current density,[1]; 10 µM,7.736 pA/pF and 9.045 pA/pF and 6.655 pA/pF and 9.464 pA/pF
same,current density,[1]; 20 µM,11.0727 pA/pF and 11.9545 pA/pF and 11.2909 pA/pF and 11.6545 pA/pF
same,current density,[1]; 50 µM,26.9364 pA/pF and 36.5091 pA/pF and 23.5818 pA/pF and 26.8545 pA/pF
same,current density,[1]; 100 µM,95.0727 pA/pF and 115.527 pA/pF and 80.9273 pA/pF and 83.2 pA/pF
same,current density,[1]; 200 µM,156.364 pA/pF and 155.436 pA/pF and 160.382 pA/pF and 158.109 pA/pF
same,current density,[1]; 400 µM,179.973 pA/pF
same,EC50,[1]; read-out: EC50,102 ± 3 µM
same,ITPC2,[2],876 ± 196 pA
